From US20230093099A1, “COMPOUNDS AND METHODS OF TREATING CANCERS” (CULLGEN (SHANGHAI), INC., priority 2019, published 2023)

What follows are compounds tested on RS4;11 cells (assay: Cell viability assay (CellTiter-Glo) in RS4;11 cells). Conditions: Homo sapiens, 72 h; RS4;11 ALL cells treated for three days; read-out: cell viability inhibition IC50.
Format: cell-based
Summary of the method: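 RS4;11 cells seeded at 5000 per well, exposed for 3 days to 8- or 12-point 3-fold serial dilutions. Viability read by CellTiter-Glo luminescence; IC50 fitted by nonlinear least-squares regression.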

IC50 | SMILES
< 0.1 µM | CS(=O)(=O)c1ccc(-c2cccc3nc(Nc4ccc(N5CCN(C(=O)CCCCCCNc6ccc7c(c6)C(=O)N(C6CCC(=O)NC6=O)C7=O)CC5)cc4)nn23)cc1 (stereo not shown) [JA-199, 2-(2,6-dioxopiperidin-3-yl)-5-((7-(4-(4-((5-(4-(methylsulfonyl)phenyl)-[1,2,4]triazolo[1,5-a]pyridin-2-yl)amino)phenyl)piperazin-1-yl)-7-oxoheptyl)amino)isoindoline-1,3-dione]

Same assay, conditions: Homo sapiens, 72 h; RS4;11 cells; cell viability, 3 days, CellTiter-Glo; read-out: IC50

SMILES | IC50
Cc1ncsc1-c1ccc(CNC(=O)[C@@H]2C[C@@H](O)CN2C(=O)[C@@H](NC(=O)COCCOCCOCC(=O)N2CCN(c3ccc(Nc4nc5cccc(-c6ccc(S(C)(=O)=O)cc6)n5n4)cc3)CC2)C(C)(C)C)cc1 [JA-064, (2S,4R)-1-((S)-2-(tert-Butyl)-14-(4-(4-((5-(4-(methylsulfonyl)phenyl)-[1,2,4]triazolo[1,5-a]pyridin-2-yl)amino)phenyl)piperazin-1-yl)-4,14-dioxo-6,9,12-trioxa-3-azatetradecanoyl)-4-hydroxy-N-(4-(4-methylthiazol-5-yl)benzyl)pyrrolidine-2-carboxamide] | > 10 µM
Cn1c(=O)n(C2CCC(=O)NC2=O)c2ccc(NCCCCC(=O)N3CCN(c4ccc(Nc5nc6cccc(-c7ccc(S(C)(=O)=O)cc7)n6n5)cc4)CC3)cc21 (stereo not shown) [JA-291, 3-(3-Methyl-5-((5-(4-(4-((5-(4-(methylsulfonyl)phenyl)-[1,2,4]triazolo[1,5-a]pyridin-2-yl)amino)phenyl)piperazin-1-yl)-5-oxopentyl)amino)-2-oxo-2,3-dihydro-1H-benzo[d]imidazol-1-yl)piperidine-2,6-dione] | > 0.5 µM
Cc1cnc(Nc2ccc(N3CCN(CC(=O)NCCOCCNc4ccc5c(c4)C(=O)N(C4CCC(=O)NC4=O)C5=O)CC3)cc2)nc1Nc1cccc(S(=O)(=O)NC(C)(C)C)c1 (stereo not shown) [JA-237, 2-(4-(4-((4-((3-(N-(tert-butyl)sulfamoyl)phenyl)amino)-5-methylpyrimidin-2-yl)amino)phenyl)piperazin-1-yl)-N-(2-(2-((2-(2,6-dioxopiperidin-3-yl)-1,3-dioxoisoindolin-5-yl)amino)ethoxy)ethyl)acetamide] | > 10 µM
Cc1cnc(Nc2ccc(N3CCN(C(=O)CCCNc4ccc5c(c4)C(=O)N(C4CCC(=O)NC4=O)C5=O)CC3)cc2)nc1Nc1cccc(S(=O)(=O)NC(C)(C)C)c1 (stereo not shown) [JA-227, N-(tert-butyl)-3-((2-((4-(4-(4-((2-(2,6-dioxopiperidin-3-yl)-1,3-dioxoisoindolin-5-yl)amino)butanoyl)piperazin-1-yl)phenyl)amino)-5-methylpyrimidin-4-yl)amino)benzenesulfonamide] | 3.11 µM
CS(=O)(=O)c1ccc(-c2cccc3nc(Nc4ccc(N5CCN(C(=O)CCCCCCNc6ccc7c(c6)C(=O)N(C6CCC(=O)NC6=O)C7=O)CC5)cc4)nn23)cc1 (stereo not shown) [JA-199, 2-(2,6-dioxopiperidin-3-yl)-5-((7-(4-(4-((5-(4-(methylsulfonyl)phenyl)-[1,2,4]triazolo[1,5-a]pyridin-2-yl)amino)phenyl)piperazin-1-yl)-7-oxoheptyl)amino)isoindoline-1,3-dione] | 0.0325 µM
CS(=O)(=O)c1ccc(-c2cccc3nc(Nc4ccc(N5CCN(CCCCCCNc6ccc7c(c6)C(=O)N(C6CCC(=O)NC6=O)C7=O)CC5)cc4)nn23)cc1 (stereo not shown) [JA-254, 2-(2,6-Dioxopiperidin-3-yl)-5-((6-(4-(4-((5-(4-(methylsulfonyl)phenyl)-[1,2,4]triazolo[1,5-a]pyridin-2-yl)amino)phenyl)piperazin-1-yl)hexyl)amino)isoindoline-1,3-dione] | 1.15 µM
Cc1ncsc1-c1ccc(CNC(=O)[C@@H]2C[C@@H](O)CN2C(=O)[C@@H](NC(=O)CCOCCOCCOCCOCCOCCC(=O)N2CCN(c3ccc(Nc4nc5cccc(-c6ccc(S(C)(=O)=O)cc6)n5n4)cc3)CC2)C(C)(C)C)cc1 [JA-071, (2S,4R)-1-((S)-2-(tert-Butyl)-22-(4-(4-((5-(4-(methylsulfonyl)phenyl)-[1,2,4]triazolo[1,5-a]pyridin-2-yl)amino)phenyl)piperazin-1-yl)-4,22-dioxo-7,10,13,16,19-pentaoxa-3-azadocosanoyl)-4-hydroxy-N-(4-(4-methylthiazol-5-yl)benzyl)pyrrolidine-2-carboxamide] | 0.96 µM
Cc1ncsc1-c1ccc(CNC(=O)[C@@H]2C[C@@H](O)CN2C(=O)[C@@H](NC(=O)COCCNC(=O)CN2CCN(c3ccc(Nc4nc5cccc(-c6ccc(S(C)(=O)=O)cc6)n5n4)cc3)CC2)C(C)(C)C)cc1 [JA-132, (2S,4R)-1-((S)-3,3-Dimethyl-2-(2-(2-(2-(4-(4-((5-(4-(methylsulfonyl)phenyl)-[1,2,4]triazolo[1,5-a]pyridin-2-yl)amino)phenyl)piperazin-1-yl)acetamido)ethoxy)acetamido)butanoyl)-4-hydroxy-N-(4-(4-methylthiazol-5-yl)benzyl)pyrrolidine-2-carboxamide] | > 10 µM

Further lines, results first:

IC50 | SMILES
> 10 µM | Cc1ncsc1-c1ccc(CNC(=O)[C@@H]2C[C@@H](O)CN2C(=O)[C@@H](NC(=O)CCCNC(=O)CN2CCN(c3ccc(Nc4nc5cccc(-c6ccc(S(C)(=O)=O)cc6)n5n4)cc3)CC2)C(C)(C)C)cc1 [JA-125, (2S,4R)-1-((S)-3,3-Dimethyl-2-(4-(2-(4-(4-((5-(4-(methylsulfonyl)phenyl)-[1,2,4]triazolo[1,5-a]pyridin-2-yl)amino)phenyl)piperazin-1-yl)acetamido)butanamido)butanoyl)-4-hydroxy-N-(4-(4-methylthiazol-5-yl)benzyl)pyrrolidine-2-carboxamide]
> 10 µM | O=C(CN1CCC(n2cc(-c3cnc4cccc(-c5cc(F)c(CN6CCOCC6)c(F)c5)c4n3)cn2)CC1)NCCCCCCCNc1cccc2c1C(=O)N(C1CCC(=O)NC1=O)C2=O (stereo not shown) [JA-148, 2-(4-(4-(8-(3,5-Difluoro-4-(morpholinomethyl)phenyl)quinoxalin-2-yl)-1H-pyrazol-1-yl)piperidin-1-yl)-N-(7-((2-(2,6-dioxopiperidin-3-yl)-1,3-dioxoisoindolin-4-yl)amino)heptyl)acetamide]
5.44 µM | O=C1CCC(N2C(=O)c3cccc(NCC(=O)N4CCC(n5cc(-c6cnc7cccc(-c8cc(F)c(CN9CCOCC9)c(F)c8)c7n6)cn5)CC4)c3C2=O)C(=O)N1 (stereo not shown) [JA-002, 4-[[2-[4-[4-[8-[3,5-Difluoro-4-(morpholinomethyl)phenyl]quinoxalin-2-yl]pyrazol-1-yl]-1-piperidyl]-2-oxo-ethyl]amino]-2-(2,6-dioxo-3-piperidyl)isoindoline-1,3-dione]
> 10 µM | Cc1ncsc1-c1ccc(CNC(=O)[C@@H]2C[C@@H](O)CN2C(=O)[C@@H](NC(=O)CCCC(=O)N2CCC(n3cc(-c4cnc5cccc(-c6cc(F)c(CN7CCOCC7)c(F)c6)c5n4)cn3)CC2)C(C)(C)C)cc1 [JA-046, (2S,4R)-1-[(2S)-2-[[5-[4-[4-[8-[3,5-Difluoro-4-(morpholinomethyl)phenyl]quinoxalin-2-yl]pyrazol-1-yl]-1-piperidyl]-5-oxo-pentanoyl]amino]-3,3-dimethyl-butanoyl]-4-hydroxy-N-[[4-(4-methylthiazol-5-yl)phenyl]methyl]pyrrolidine-2-carboxamide]
> 10 µM | Cc1cnc(Nc2ccc(N3CCN(C(=O)CCC(=O)N[C@H](C(=O)N4C[C@H](O)C[C@H]4C(=O)NCc4ccc(-c5scnc5C)cc4)C(C)(C)C)CC3)cc2)nc1Nc1cccc(S(=O)(=O)NC(C)(C)C)c1 [JA-022, (2S,4R)-1-((S)-2-(4-(4-(4-((4-((3-(N-(tert-Butyl)sulfamoyl)phenyl)amino)-5-methylpyrimidin-2-yl)amino)phenyl)piperazin-1-yl)-4-oxobutanamido)-3,3-dimethylbutanoyl)-4-hydroxy-N-(4-(4-methylthiazol-5-yl)benzyl)pyrrolidine-2-carboxamide]
> 10 µM | Cc1ncsc1-c1ccc(CNC(=O)[C@@H]2C[C@@H](O)CN2C(=O)[C@@H](NC(=O)CCOCCOCCOCCC(=O)N2CCN(c3ccc(Nc4nc5cccc(-c6ccc(S(C)(=O)=O)cc6)n5n4)cc3)CC2)C(C)(C)C)cc1 [JA-068, (2S,4R)-1-((S)-2-(tert-Butyl)-16-(4-(4-((5-(4-(methylsulfonyl)phenyl)-[1,2,4]triazolo[1,5-a]pyridin-2-yl)amino)phenyl)piperazin-1-yl)-4,16-dioxo-7,10,13-trioxa-3-azahexadecanoyl)-4-hydroxy-N-(4-(4-methylthiazol-5-yl)benzyl)pyrrolidine-2-carboxamide]
> 0.5 µM | Cn1c(=O)n(C2CCC(=O)NC2=O)c2cccc(NCCCCCCC(=O)N3CCC(n4cc(-c5cnc6cccc(-c7cc(F)c(CN8CCOCC8)c(F)c7)c6n5)cn4)CC3)c21 (stereo not shown) [JA-283, 3-(4-((7-(4-(4-(8-(3,5-Difluoro-4-(morpholinomethyl)phenyl)quinoxalin-2-yl)-1H-pyrazol-1-yl)piperidin-1-yl)-7-oxoheptyl)amino)-3-methyl-2-oxo-2,3-dihydro-1H-benzo[d]imidazol-1-yl)piperidine-2,6-dione]
5.16 µM | O=C1CCC(N2C(=O)c3ccc(NCCC(=O)N4CCC(n5cc(-c6cnc7cccc(-c8cc(F)c(CN9CCOCC9)c(F)c8)c7n6)cn5)CC4)cc3C2=O)C(=O)N1 (stereo not shown) [JA-190, 5-((3-(4-(4-(8-(3,5-Difluoro-4-(morpholinomethyl)phenyl)quinoxalin-2-yl)-1H-pyrazol-1-yl)piperidin-1-yl)-3-oxopropyl)amino)-2-(2,6-dioxopiperidin-3-yl)isoindoline-1,3-dione]
> 10 µM | O=C1CCC(N2C(=O)c3ccc(NCCOCCOCCC(=O)N4CCC(n5cc(-c6cnc7cccc(-c8cc(F)c(CN9CCOCC9)c(F)c8)c7n6)cn5)CC4)cc3C2=O)C(=O)N1 (stereo not shown) [JA-183, 5-((2-(2-(3-(4-(4-(8-(3,5-Difluoro-4-(morpholinomethyl)phenyl)quinoxalin-2-yl)-1H-pyrazol-1-yl)piperidin-1-yl)-3-oxopropoxy)ethoxy)ethyl)amino)-2-(2,6-dioxopiperidin-3-yl)isoindoline-1,3-dione]
> 10 µM | O=C1CCC(N2C(=O)c3ccc(NCCOCCOCCOCCOCCC(=O)N4CCC(n5cc(-c6cnc7cccc(-c8cc(F)c(CN9CCOCC9)c(F)c8)c7n6)cn5)CC4)cc3C2=O)C(=O)N1 (stereo not shown) [JA-185, 5-((15-(4-(4-(8-(3,5-Difluoro-4-(morpholinomethyl)phenyl)quinoxalin-2-yl)-1H-pyrazol-1-yl)piperidin-1-yl)-15-oxo-3,6,9,12-tetraoxapentadecyl)amino)-2-(2,6-dioxopiperidin-3-yl)isoindoline-1,3-dione]
